pIC50: −log10 of the molar value.

Among the data in ChEMBL document CHEMBL5728846, “6H-thieno[2,3-e][1,2,4]triazolo[3,4-c][1,2,4]triazepine derivative” (2021) are IC50 values, retold here.

The nature of the experiment: NF-keppaB Inhibitory Activity Evaluation Test: A549/NF-κB-luc cells (available from Panomics, Cat No. LR0051) were prepared at 375,000 cells/mL in the culture medium. The 375,000 cells/mL A549/NF-κB-luc cell suspension was seeded at 80 μL each on a white 96-well plate (available from Greiner, Cat No. 655073). One hour after seeding the cells, 10 μL of 2% DMSO solution (control) and each compound solution in each concentration were added to each well of the 96-well plate. One hour after the addition of each compound solution, 10 ng/mL of the TNF-α solution (10 μL) was added to each well of the 96-well plate. Three hours after the addition of 10 ng/mL of the TNF-α solution, 100 μL of Steady-Glo reagent (available from Promega, Cat No. E2510) was added to each well of the 96-well plate. After 30 to 90 minutes of the addition of the Steady-Glo reagent, the luminescence intensity of each well was detected by EnVision multilabel counter (available from PerkinElmer).

As for `Cc1sc2c(c1C)C(c1ccc(Cl)cc1)=NN(Cc1cccc(F)n1)c1nnc(C)n1-2`, the negative logarithm of the IC50 (pIC50) is 7.47.
